{"source": "PubChem BioAssay AID2060613", "about": "(Molecular Pharmacology Branch, DTP, NCI, 2025);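 further: spheroids exposed to the drug combinations for seven days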;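 on viability, T/C: percent viability relative to DMSO vehicle control wells taken as 100%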", "tested_on": "233499-124-R-J3-PDC complex spheroid viability", "experiment": "Anticancer human tumor 233499-124-R-J3-PDC patient-derived colon adenocarcinoma cell line growth inhibition [CLK]", "conditions": "for IC50: curve of first compound; for viability, T/C: stronger effect = lower value", "source_text": "A high-throughput screen of multi-cell type tumor spheroids was designed to identify active combinations of […] and targeted small molecules. Complex spheroids include a stromal component modeled by human endothelial cells (HUVEC) and fibroblasts modeled by human mesenchymal stem cells (MSCs). The concentration ranges selected for each drug and investigational agent were based upon clinically achievable concentrations if the clinical Cmax of the agent was known.\nCompounds. The drugs and investigational agents: cirtuvivint (SM08502; NSC835563), CC-671 (NSC850746), vemurafenib (NSC761431), tapotoclax (NSC804041), sotorasib (NSC818433), adagrasib (NSC831453), MRTX-1133 (NSC836407), BAY2416964 (NSC825713), copanlisib (NSC816437), inavolisib (NSC800729), abemaciclib (NSC768073), osimertinib (NSC779217), entinostat (NSC756642), eltanexor (KPT-8602, NSC794443), venetoclax (NSC766270), ceralasertib (NSC777638), bortezomib (NSC756655), olaparib (NSC753686), talazoparib (NSC767125), alisertib (NSC759677), peposertib (NSC802822), gemcitabine (NSC613327), 5-fluorouracil (NSC19893), SN-38 (NSC673596), oxaliplatin (NSC266046), paclitaxel (NSC125973), and doxorubicin (NSC123127), were obtained from the National Cancer Institute (NCI) Developmental Therapeutics Program Chemical Repository. The FDA-approved anticancer drug set is available from the Developmental Therapeutics Program at https://dtp.cancer.gov/organization/dscb/obtaining/available plates.htm. […] The stock solutions were prepared in dimethyl sulfoxide (DMSO, Sigma-Aldrich, St. Louis, MO, cat. D2650), except for the platinum complexes which were prepared in saline (Quality Biological, Gaithersburg, MD, cat. 114-055-101), at 800-fold the tested concentration and stored at -70 degrees C prior to their use. All drugs and investigational agents were tested over a range starting from a high concentration at or near the clinical Cmax and decreasing in half-log increments. If the clinical Cmax for an agent had not been determined, the highest concentration tested was 10 microM.\nCell Culture. All cells were maintained in an incubator at 37 degrees C and 5% CO2 with 95% humidity. The PDC lines were cultured according to standard operating procedures established by the NCI PDMR. Briefly, all PDCs were thawed and cultured in Matrigel-coated flasks prepared with a working solution of 1X Ham's F-12 nutrient mix, without supplementation (Invitrogen, Waltham, MA, cat. 11765054), 100 U/mL penicillin-streptomycin (Invitrogen, cat. 15140122), and 2.5% Matrigel (Corning Inc., Corning, NY, cat. 354248) for the first three passages. The 947758-054-R-J2-PDC line was cultured in 6B/Colon 1A media, which includes advanced DMEM/F-12 (Thermo Fisher Scientific, cat. 12634028), 10 mM HEPES (Thermo Fisher Scientific, cat. 15630080), 1X GlutaMAX supplement (Thermo Fisher Scientific, cat. 35050061), 0.1 mg/mL primocin (InvivoGen, cat. ant-pm-2), 10% defined fetal bovine serum, heat inactivated (HyClone Laboratories Inc., cat. SH30070.03HI), 1.25 mM N-Acetyl-L-cysteine (Sigma-Aldrich, cat. A9165), 10 mM nicotinamide (Sigma-Aldrich, cat. N0636), 1X B-27 supplement (Thermo Fisher Scientific, cat. 17504044), 1X N-2 supplement (Thermo Fisher Scientific, cat. 17502048), and 10 microM Y-27632 dihydrochloride (Tocris Bioscience, cat. 1254). The 876862-298-R-J1-PDC was cultured in 6E media, which includes all 6B/Colon 1A media components plus 50% L-WRN conditioned media (ATCC, cat. CRL-3276), 50 ng/mL recombinant human EGF recombinant protein (hEGF; Thermo Fisher Scientific, cat. PHG0311), 10 ng/mL recombinant human fibroblast growth factor 10 (hGFG-10; PeproTech, cat. 100-26), 1 ng/mL recombinant human fibroblast growth factor 2 (hFGF-2; PeproTech, cat. 100-18B), and 1 µM prostaglandin E2 (PGE2; Tocris, cat. 2296). The 227483-062-R1-J1-PDC line was cultured in Panc media, containing all 6E components except hFGF-2, with the addition of 500 nM SB-431542 (Selleckchem, cat. S1067) and 10 nM gastrin (Tocris, cat. 3006). […]", "data": [{"smiles": "CC1COCCN1c1cc(C2(S(C)(=N)=O)CC2)nc(-c2ccnc3[nH]ccc23)n1", "note": "(configuration not stated) + CNC(=O)c1ccc(Nc2nc(OC3CCCC3)c3c(-c4ccc5nc(C)oc5c4)c[nH]c3n2)c(OC)c1", "values": [{"measurement": "IC50", "setting": "second compound 0.0316 µM", "value": 9.04, "unit": "µM"}, {"measurement": "IC50", "setting": "second compound 0.1 µM", "value": 8.71, "unit": "µM"}, {"measurement": "IC50", "setting": "second compound 0.316 µM", "value": 6.66, "unit": "µM"}, {"measurement": "IC50", "setting": "second compound 1 µM", "value": 5.52, "unit": "µM"}, {"measurement": "IC50", "setting": "second compound 3.16 µM", "value": 3.24, "unit": "µM"}, {"measurement": "IC50", "setting": "second compound 10 µM", "value": 4.41, "unit": "µM"}, {"measurement": "viability, T/C", "setting": "second compound 0.0316 µM, first compound 0.0316 µM", "value": 90, "unit": "%"}, {"measurement": "viability, T/C", "setting": "second compound 0.0316 µM, first compound 0.1 µM", "value": 103, "unit": "%"}, {"measurement": "viability, T/C", "setting": "second compound 0.0316 µM, first compound 0.316 µM", "value": 77.8, "unit": "%"}, {"measurement": "viability, T/C", "setting": "second compound 0.0316 µM, first compound 1 µM", "value": 87.5, "unit": "%"}, {"measurement": "viability, T/C", "setting": "second compound 0.0316 µM, first compound 3.16 µM", "value": 89.7, "unit": "%"}, {"measurement": "viability, T/C", "setting": "second compound 0.0316 µM, first compound 10 µM", "value": 46.2, "unit": "%"}, {"measurement": "viability, T/C", "setting": "second compound 0.1 µM, first compound 0.0316 µM", "value": 76.6, "unit": "%"}, {"measurement": "viability, T/C", "setting": "second compound 0.1 µM, first compound 0.1 µM", "value": 76.9, "unit": "%"}, {"measurement": "viability, T/C", "setting": "second compound 0.1 µM, first compound 0.316 µM", "value": 71.6, "unit": "%"}, {"measurement": "viability, T/C", "setting": "second compound 0.1 µM, first compound 1 µM", "value": 70.1, "unit": "%"}, {"measurement": "viability, T/C", "setting": "second compound 0.1 µM, first compound 3.16 µM", "value": 70.5, "unit": "%"}, {"measurement": "viability, T/C", "setting": "second compound 0.1 µM, first compound 10 µM", "value": 47.2, "unit": "%"}, {"measurement": "viability, T/C", "setting": "second compound 0.316 µM, first compound 0.0316 µM", "value": 81.3, "unit": "%"}, {"measurement": "viability, T/C", "setting": "second compound 0.316 µM, first compound 0.1 µM", "value": 88.1, "unit": "%"}, {"measurement": "viability, T/C", "setting": "second compound 0.316 µM, first compound 0.316 µM", "value": 74, "unit": "%"}, {"measurement": "viability, T/C", "setting": "second compound 0.316 µM, first compound 1 µM", "value": 76.6, "unit": "%"}, {"measurement": "viability, T/C", "setting": "second compound 0.316 µM, first compound 3.16 µM", "value": 68, "unit": "%"}, {"measurement": "viability, T/C", "setting": "second compound 0.316 µM, first compound 10 µM", "value": 40.3, "unit": "%"}, {"measurement": "viability, T/C", "setting": "second compound 1 µM, first compound 0.0316 µM", "value": 86.4, "unit": "%"}, {"measurement": "viability, T/C", "setting": "second compound 1 µM, first compound 0.1 µM", "value": 59.8, "unit": "%"}, {"measurement": "viability, T/C", "setting": "second compound 1 µM, first compound 0.316 µM", "value": 61.8, "unit": "%"}, {"measurement": "viability, T/C", "setting": "second compound 1 µM, first compound 1 µM", "value": 74.1, "unit": "%"}, {"measurement": "viability, T/C", "setting": "second compound 1 µM, first compound 3.16 µM", "value": 61.7, "unit": "%"}, {"measurement": "viability, T/C", "setting": "second compound 1 µM, first compound 10 µM", "value": 36.8, "unit": "%"}, {"measurement": "viability, T/C", "setting": "second compound 3.16 µM, first compound 0.0316 µM", "value": 72.8, "unit": "%"}, {"measurement": "viability, T/C", "setting": "second compound 3.16 µM, first compound 0.1 µM", "value": 77.6, "unit": "%"}, {"measurement": "viability, T/C", "setting": "second compound 3.16 µM, first compound 0.316 µM", "value": 82.5, "unit": "%"}, {"measurement": "viability, T/C", "setting": "second compound 3.16 µM, first compound 1 µM", "value": 70.3, "unit": "%"}, {"measurement": "viability, T/C", "setting": "second compound 3.16 µM, first compound 3.16 µM", "value": 50.8, "unit": "%"}, {"measurement": "viability, T/C", "setting": "second compound 3.16 µM, first compound 10 µM", "value": 30.5, "unit": "%"}, {"measurement": "viability, T/C", "setting": "second compound 10 µM, first compound 0.0316 µM", "value": 69.5, "unit": "%"}, {"measurement": "viability, T/C", "setting": "second compound 10 µM, first compound 0.1 µM", "value": 69.3, "unit": "%"}, {"measurement": "viability, T/C", "setting": "second compound 10 µM, first compound 0.316 µM", "value": 69.2, "unit": "%"}, {"measurement": "viability, T/C", "setting": "second compound 10 µM, first compound 1 µM", "value": 63.8, "unit": "%"}, {"measurement": "viability, T/C", "setting": "second compound 10 µM, first compound 3.16 µM", "value": 59.6, "unit": "%"}, {"measurement": "viability, T/C", "setting": "second compound 10 µM, first compound 10 µM", "value": 29, "unit": "%"}]}]}
